Source: patent publication US20140350273A1, “PEDIATRIC USES OF CABAZITAXEL” (AVENTIS PHARMA S.A., priority 2012, published 2014)
Where two headings read alike, the source gives them in different places.

Test system: human Ewing's sarcoma SK-ES-1
Format: in vivo
Parameters: Tumor volume changes from baseline: Median (nMad): unit not given here
Description: This efficacy may be quantified, for example, as changes in tumor volume for each treated (T) and control (C) group, which are calculated for each animal and each day by subtracting the tumor volume on the day of first treatment (staging day) from the tumor volume on the specified observation day. This allows calculating the tumor growth inhibition: ΔT/ΔC=(median delta T/median delta C)×100. Individual tumor volume changes from baseline are thereafter analyzed by a non-parametric two-way ANOVA-TYPE (with factors: group and repeated days) followed by a post-hoc contrasts analysis, with Bonferroni-Holm adjustment for multiplicity, comparing all treated groups to the control group. […] A probability less than 5% (p<0.05) was considered as significant.
Based on the National Cancer Institute (NCl) standards, a ΔT/ΔC≦40% is the minimal level required to declare activity.
The tumor doubling time (in days; Td) was estimated from the plot of the log linear growth of the control group tumors in exponential growth (100 to 1000 mm^3 range) [T. H. Corbett et al., Cancer, 40: 2660-2680 (1977); F. M. Schabel et al., Cancer Drug Development, Part B, Methods in Cancer Research, 17: 3-51, New York, Academic Press Inc. (1979)].
This efficacy may also be quantified by the number of tumor regressions observed after therapy. Individual mice reporting a tumor volume ≦50% of the Day 0 measurement for two consecutive measurements over a seven day period were considered partial responders (PR). Individual mice lacking palpable tumors (<4×4 mm^2 for two consecutive measurements over a seven day period) were classified as complete responders (CR); a CR that persisted until study completion was considered a tumor-free survivor (TFS).
The efficacy of cabazitaxel in comparison with docetaxel on pediatric solid tumors was determined experimentally in the following manner:
The animals subjected to the experiment are subcutaneously grafted unilaterally with approximately 30 mg of a tumor fragment on day 0. The animals are implanted with a human tumor xenografted in immunocompromized mice. Several days post tumor implantation, mice are randomized according to their body weight to the different groups of treatments and controls. The animals are observed every day. The different animal groups are weighed daily during treatment until the maximum weight loss is reached and subsequent full weight recovery has occurred. The groups are then weighed once or twice a week until the end of the trial.
The tumors are measured 1 to 5 times a week, depending on the tumor doubling time, until the tumor reaches approximately 1,000 mm^3, or until the animal dies (if this occurs before the tumor reaches 1,000 mm^3). The animals are necropsied immediately after euthanasia or death.
The selected tumor model was a human Ewing's sarcoma SK-ES-1, xenografted in SCID mice [Fogh J. New York: Plenum Press, 1975].
Cabazitaxel and docetaxel were weighed for each treatment and dissolved in ethanol. Treatment solutions were prepared first by mixing 1 volume of ethanolic stock solution and 1 volume of polysorbate 80, then by adding 18 volumes of glucose 5% in water.
The Td in days was estimated from the plot of the log linear growth of the control group tumors in exponential growth (100 to 1,000 mm^3 range) and the number of tumor regressions observed after therapy.
The following end points have been used: • Toxicity was declared at dosages inducing ≧20% body weight loss or ≧10% drug death; • Relative tumor growth inhibition was determined on day 22 post tumor implantation when the median tumor size in the control group was 456 mm^3; • Antitumor efficacy was determined by calculating the ΔT/ΔC value in percent, according to the above-mentioned formula; • Tumor regressions (as explained above); • Statistical analysis performed (as explained above).

[1] = 3.5 mg/kg per injection (total 7.0) IV days 15; 19
[2] = 3.5 mg/kg per injection (total 7.0) IV days 15; 19; listed as DOCETAXEL
[3] = 3.5 mg/kg per injection (total 7.0) IV days 15; 19; listed as docetaxel
[4] = 5.6 mg/kg per injection (total 11.2) IV days 15; 19
[5] = 5.6 mg/kg per injection (total 11.2) IV days 15; 19; listed as DOCETAXEL
[6] = 9.0 mg/kg per injection (total 18) IV days 15; 19
[7] = 9.0 mg/kg per injection (total 18) IV days 15; 19; listed as DOCETAXEL
[8] = 14.5 mg/kg per injection (total 29) IV days 15; 19
[9] = 14.5 mg/kg per injection (total 29) IV days 15; 19; listed as DOCETAXEL
[10] = 14.5 mg/kg per injection (total 29) IV days 15; 19; listed as docetaxel

CC(=O)O[C@@]12CO[C@@H]1C[C@H](O)[C@@]1(C)C(=O)[C@H](O)C3=C(C)[C@@H](OC(=O)[C@H](O)[C@@H](NC(=O)OC(C)(C)C)c4ccccc4)C[C@@](O)([C@@H](OC(=O)c4ccccc4)[C@H]21)C3(C)C [Docetaxel, docetaxel]
Average body weight change in % per mouse at nadir [1]: −2.1% | Drug death [1]: 0/7 | Regressions Complete [1]: 0/7 | Regressions Partial [1]: 0/7 | Tumor free survivors at day 120 [1]: 0/7 | day of nadir [1]: 16 days | Biological interpretation [2]: Inactive | ΔT/ΔC in % (day 22) [2]: 72% | Biological interpretation [3]: inactive | ΔT/ΔC in % (day 22) [3]: > 40% | Tumor volume changes from baseline: Median (nMad) (3.5 mg/kg, day 19): 52 | Tumor volume changes from baseline: Median (nMad) (3.5 mg/kg, day 22): 136 | Tumor volume changes from baseline: Median (nMad) (3.5 mg/kg, day 25): 712 | Tumor volume changes from baseline: Median (nMad) (3.5 mg/kg, day 28): 900 | Tumor volume changes from baseline: Median (nMad) (3.5 mg/kg; day 19): 52 (89) | Tumor volume changes from baseline: Median (nMad) (3.5 mg/kg; day 22): 136 | Tumor volume changes from baseline: Median (nMad) (3.5 mg/kg; day 25): 712 (29.7) | Tumor volume changes from baseline: Median (nMad) (3.5 mg/kg; day 28): 900 | Average body weight change in % per mouse at nadir [4]: −5.4% | Drug death [4]: 0/7 | Regressions Complete [4]: 0/7 | Regressions Partial [4]: 1/7 | Tumor free survivors at day 120 [4]: 0/7 | day of nadir [4]: 16 days | Biological interpretation [5]: Highly Active | ΔT/ΔC in % (day 22) [5]: <0% | Biological interpretation (5.6 mg/kg per injection (total 11.2) IV days 15; 19; listed as docetaxel): highly active | Tumor volume changes from baseline: Median (nMad) (5.6 mg/kg, day 19): 0 | Tumor volume changes from baseline: Median (nMad) (5.6 mg/kg, day 22): −36 | Tumor volume changes from baseline: Median (nMad) (5.6 mg/kg, day 25): 168 | Tumor volume changes from baseline: Median (nMad) (5.6 mg/kg, day 28): 342 | Tumor volume changes from baseline: Median (nMad) (5.6 mg/kg; day 19): 0 (106.7) | Tumor volume changes from baseline: Median (nMad) (5.6 mg/kg; day 22): −36 (60.8) | Tumor volume changes from baseline: Median (nMad) (5.6 mg/kg; day 25): 168 (80.1) | Tumor volume changes from baseline: Median (nMad) (5.6 mg/kg; day 28): 342 (89) | Tumor volume changes from baseline: Median (nMad) (5.6 mg/kg; day 32): 480 | Tumor volume changes from baseline: Median (nMad) (5.6 mg/kg; day 35): 2005 | Average body weight change in % per mouse at nadir [6]: −6.6% | Drug death [6]: 0/7 | Regressions Complete [6]: 0/7 | Regressions Partial [6]: 6/7 | Tumor free survivors at day 120 [6]: 0/7 | day of nadir [6]: 23 days | Biological interpretation [7]: Highly Active | ΔT/ΔC in % (day 22) [7]: <0% | Biological interpretation (9.0 mg/kg per injection (total 18) IV days 15; 19; listed as docetaxel): highly active | Tumor volume changes from baseline: Median (nMad) (9 mg/kg, day 19): 0 | Tumor volume changes from baseline: Median (nMad) (9 mg/kg, day 22): −101 | Tumor volume changes from baseline: Median (nMad) (9 mg/kg, day 25): −126 | Tumor volume changes from baseline: Median (nMad) (9 mg/kg, day 28): −126 | Tumor volume changes from baseline: Median (nMad) (9 mg/kg; day 19): 0 (37.1) | Tumor volume changes from baseline: Median (nMad) (9 mg/kg; day 22): −101 | Tumor volume changes from baseline: Median (nMad) (9 mg/kg; day 25): −126 | Tumor volume changes from baseline: Median (nMad) (9 mg/kg; day 28): −126 (46) | Tumor volume changes from baseline: Median (nMad) (9 mg/kg; day 32): −49 | Tumor volume changes from baseline: Median (nMad) (9 mg/kg; day 35): 201 | Average body weight change in % per mouse at nadir [8]: −10.5% | Drug death [8]: 0/7 | Regressions Complete [8]: 3/7 | Regressions Partial [8]: 7/7 | day of nadir [8]: 27 days | Biological interpretation [9]: Highly Active | Tumor free survivors at day 120 [9]: 0/7 | ΔT/ΔC in % (day 22) [9]: <0% | Biological interpretation [10]: highly active | Tumor free survivors at day 120 [10]: no TFS | Tumor volume changes from baseline: Median (nMad) (14.5 mg/kg, day 19): −18 | Tumor volume changes from baseline: Median (nMad) (14.5 mg/kg, day 22): −156 | Tumor volume changes from baseline: Median (nMad) (14.5 mg/kg, day 25): −173 | Tumor volume changes from baseline: Median (nMad) (14.5 mg/kg, day 28): −164 | Tumor volume changes from baseline: Median (nMad) (14.5 mg/kg; day 19): −18 (77.1) | Tumor volume changes from baseline: Median (nMad) (14.5 mg/kg; day 22): −156 | Tumor volume changes from baseline: Median (nMad) (14.5 mg/kg; day 25): −173 | Tumor volume changes from baseline: Median (nMad) (14.5 mg/kg; day 28): −164 | Tumor volume changes from baseline: Median (nMad) (14.5 mg/kg; day 32): −162 | Tumor volume changes from baseline: Median (nMad) (14.5 mg/kg; day 35): −162 | Tumor volume changes from baseline: Median (nMad) (14.5 mg/kg; day 39): 290 | Tumor volume changes from baseline: Median (nMad) (14.5 mg/kg; day 41): 274 | Tumor volume changes from baseline: Median (nMad) (14.5 mg/kg; day 43): 427.5 | Tumor volume changes from baseline: Median (nMad) (14.5 mg/kg; day 45): 574
